{"source": "patent US5916576A", "about": "“Method of scavenging free radicals using orange extract” (Amway Corporation, priority 1997, dated 1999)", "test": "DPPH free radical scavenging activity test (percent inhibition, absorbency at 516 nm)", "type": "biochemical", "conditions": "Table 1; 1% solutions, in the manner of Example 1 (DPPH, 30 minutes at 37° C, 516 nm)", "protocol": "A control solution was prepared by measuring 39.43 mg of 2,2-diphenyl-1-picrylhydrazyl hydrate (DPPH), a known source of free radicals, and diluting it to 1000 ml with ethanol. A control cuvette was charged with 1.75 ml of the control and 1.75 ml of ethanol. A blank cuvette was charged with 3.5 ml of ethanol. The cuvettes were placed in an oven for 30 minutes at 37° C. The absorbency was measured at 516 nm using a UV/vis spectrophotometer by placing the blank cuvette into the reference slot and the control cuvette into the sample slot.\nAn orange extract was prepared according to the method described above. A test cuvette was charged with 1.75 ml of the control solution and 1.75 ml of a 1% solution of orange extract. A reference cuvette was charged with 1.75 ml of the orange extract and 1.75 ml of ethanol. The cuvettes were placed in an oven for 30 minutes at 37° C. The absorbency was measured in the manner described above with the test cuvette placed in the sample slot and the reference cuvette placed in the reference slot.\nThe free radical scavenging activity was calculated as a percentage of inhibition of the generation of the free radicals using the following formula:\nPercent Inhibition=100×[1-(DT/DR)]\nDT is the measured absorbance of the test cuvette with respect to the reference cuvette and DR is the measured absorbance of the control cuvette with respect to the blank cuvette. […]", "data": [{"smiles": "O=c1oc2cc(O)ccc2s1", "note": "[Tioxolone, tioxolone]", "values": [{"measurement": "% INHIBITION", "result": 50, "unit": "%"}]}, {"smiles": "CC(=O)Oc1c(C)c(C)c2c(c1C)CCC(C)(CCC[C@H](C)CCC[C@H](C)CCCC(C)C)O2", "note": "(some centres unmarked) [Tocopheryl Acetate, tocopheryl acetate]", "values": [{"measurement": "% INHIBITION", "result": 67, "unit": "%"}]}]}
